This passage reports IC50 results from patent US8420657B2 (Novartis AG, priority 2008, dated 2013).

The structures appear in SMILES notation.

T1 sequence (O60674 808-1132): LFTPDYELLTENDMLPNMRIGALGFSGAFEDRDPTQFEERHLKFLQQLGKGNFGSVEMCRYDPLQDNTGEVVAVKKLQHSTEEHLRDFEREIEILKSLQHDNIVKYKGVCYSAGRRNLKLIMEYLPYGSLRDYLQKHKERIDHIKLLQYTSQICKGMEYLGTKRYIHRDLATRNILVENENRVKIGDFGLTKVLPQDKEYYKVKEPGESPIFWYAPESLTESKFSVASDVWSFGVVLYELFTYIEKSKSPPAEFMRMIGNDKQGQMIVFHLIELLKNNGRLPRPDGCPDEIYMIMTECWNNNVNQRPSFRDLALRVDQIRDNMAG

This assay addresses T1, GST-JAK2(808-1132) (Homo sapiens, UniProt O60674).
T1 construct: GST-JAK2(808-1132); purchased Invitrogen (Carlsbad, USA) #4288
The experiment in a line: JAK2 kinase assay (Caliper mobility shift, LabChip 3000). Type of assay: biochemical. The text has this:
All four kinases of the JAK/TYK-kinase family were used as purified recombinant GST-fusion proteins, containing the active kinase domains. GST-JAK1 (866-1154), GST-JAK3(811-1124), and GST-TYK2(888-1187) were expressed and purified by affinity chromatography at the EPK biology unit. GST-JAK2(808-1132) was purchased from Invitrogen (Carlsbad, USA, #4288).
The kinase assays were based on the Caliper mobility shift assay using the LabChip 3000 systems. This technology is similar to capillary electrophoresis and uses charge driven separation of substrate and product in a microfluidic chip.
All kinase reactions were performed in 384 well microtiter plates in a total reaction volume of 18 μl. The assay plates were prepared with 0.1 μl per well of test compound in the appropriate test concentration, as described under the section “preparation of compound dilutions”. The reactions were started by combining 9 μl of substrate mix (consisting of peptide and ATP) with 9 μl of kinase dilution. The reactions were incubated for 60 minutes at 30° C. and stopped by adding 70 μl of stop buffer (100 mM Hepes, 5% DMSO, 0.1% Coating reagent, 10 mM EDTA, 0.015% Brij 35).
Fluorescently labeled synthetic peptides were used as substrates in all reactions. A peptide derived from the sequence of IRS-1(IRS-1 peptide, SEQ ID NO: 1 FITC-Ahx-KKSRGDYMTMQIG-NH2) was used for JAK1 and TYK2 and a peptide named JAK3tide SEQ ID NO: 2 (FITC-GGEEEEYFELVKKKK-NH2) for JAK2 and JAK3. Specific assay conditions are described in Table1:
The terminated reactions were transferred to the Caliper LabChip 3000 reader and the turnover of each reaction was measured by determining the substrate/product ratio.
Test compounds were dissolved in DMSO (10 mM) and transferred into 1.4 mL flat bottom or V-shaped Matrix tubes carrying a unique 2D matrix chip by individual compound hubs. The numbers of these chips were distinctively linked to the individual compound identification numbers. The stock solutions were stored at −20° C. if not used immediately. For the test procedure the vials were defrosted and identified by a scanner whereby a working sheet was generated that guided the subsequent working steps. Compound dilutions were made in 96 well plates. This format enabled the assay of maximally 40 individual test compounds at 8 concentrations (single points) including 4 reference compounds. The dilution protocol included the production of pre-dilution plates, master plates and assay plates:
Pre-dilution plates: 96 polypropylene well plates were used as pre-dilution plates. A total of 4 pre-dilution plates were prepared including 10 test compounds each on the plate positions A1-A10, one standard compound at A11 and one DMSO control at A12. All dilution steps were done on a HamiltonSTAR robot.
Master plates: 100 μL of individual compound dilutions including standard compound and controls of the 4 “pre-dilution plates” were transferred into a 384 “master plate” including the following concentrations 1,820, […], 182, 54.6, 18.2, 5.46, 1.82 and 0.546 μM, respectively in 90% of DMSO.
Assay plates: Identical assay plates were then prepared by pipetting 100 nL each of compound dilutions of the master plates into 384-well “assay plates”. In the following the compounds were mixed with 9 μL of assays components plus 9 μL enzyme corresponding to a 1:181 dilution steps enabling the final concentration of 10, 3.0, 1.0, 0.3, 0.1, 0.03, 0.01 and 0.003 μM, respectively. The preparation of the master plates were handled by the Matrix PlateMate Plus robot and replication of assay plates by the HummingBird robot.
Consider `O=C(c1ccc(-n2ccc3cnc(Nc4ccc(CN5CCNCC5)cc4)nc32)cc1F)N1CCOCC1` [Example 313, {2-Fluoro-4-[2-(4-piperazin-1-ylmethyl-phenylamino)-pyrrolo[2,3-d]pyrimidin-7-yl]-phenyl}-morpholin-4-yl-methanone], for which the IC50 is 3.7 nM.
As for `COc1cc(C)c(Nc2ncc3ccn(-c4ccc(S(C)(=O)=O)cc4)c3n2)cc1OC` [Example 11, (4,5-Dimethoxy-2-methyl-phenyl)-[7-(4-methanesulfonyl-phenyl)-7H-pyrrolo[2,3-d]pyrimidin-2-yl]-amine], the figure is 190 nM; as for `CS(=O)(=O)c1ccc(-n2ccc3cnc(Nc4ccc5c(c4)OCO5)nc32)cc1` [Example 15, Benzo[1,3]dioxol-5-yl-[7-(4-methanesulfonyl-phenyl)-7H-pyrrolo[2,3-d]pyrimidin-2-yl]-amine], 8.5 nM.
Take `CCN1CCCC1CNC(=O)c1ccc(-n2ccc3cnc(Nc4ccc(F)cc4)nc32)cc1` (centres unmarked) [Example 63, N-(1-Ethyl-pyrrolidin-2-ylmethyl)-4-[2-(4-fluoro-phenylamino)-pyrrolo[2,3-d]pyrimidin-7-yl]-benzamide]: the IC50 worked out at 73 nM.
As for `COc1cc(Nc2ncc3ccn(-c4ccc(S(=O)(=O)N(C)C)cc4)c3n2)cc(OC)c1OC` [Example 10, N,N-Dimethyl-4-[2-(3,4,5-trimethoxy-phenylamino)-pyrrolo[2,3-d]pyrimidin-7-yl]-benzenesulfonamide], the figure is below 3 nM.
Then `CN1CCN(Cc2ccc(Nc3ncc4ccn(-c5ccc(S(C)(=O)=O)cc5)c4n3)cc2)CC1` [Example 38, [7-(4-Methanesulfonyl-phenyl)-7H-pyrrolo[2,3-d]pyrimidin-2-yl]-[4-(4-methyl-piperazin-1-ylmethyl)-phenyl]-amine], with 4.5 nM.
As for `CS(=O)(=O)c1ccc(-n2ccc3cnc(Nc4ccc(N5CCNCC5)nc4)nc32)cc1` [Example 282, [7-(4-Methanesulfonyl-phenyl)-7H-pyrrolo[2,3-d]pyrimidin-2-yl]-(6-piperazin-1-yl-pyridin-3-yl)-amine], the figure is 82 nM; as for `CS(=O)(=O)c1ccc(-n2ccc3cnc(Nc4ccnc(N5CCNC6(CC6)C5)c4)nc32)cc1` [Example 275, [2-(4,7-Diaza-spiro[2.5]oct-7-yl)-pyridin-4-yl]-[7-(4-methanesulfonyl-phenyl)-7H-pyrrolo[2,3-d]pyrimidin-2-yl]-amine], 7 nM.
With `CC(C)(C)OC(=O)N1CCCC1c1ccc(Nc2ncc3ccn(-c4ccc(S(C)(=O)=O)cc4)c3n2)cc1` (centres unmarked) [Example 46, 2-{4-[7-(4-Methanesulfonyl-phenyl)-7H-pyrrolo[2,3-d]pyrimidin-2-ylamino]-phenyl}-pyrrolidine-1-carboxylic acid tert-butyl ester], the concentration for half-maximal inhibition (IC50) was 38 nM.
Then `CN1CCN(c2ncc(Nc3ncc4ccn(-c5ccc(S(C)(=O)=O)cc5)c4n3)cn2)CC1` [Example 276, [7-(4-Methanesulfonyl-phenyl)-7H-pyrrolo[2,3-d]pyrimidin-2-yl]-[2-(4-methyl-piperazin-1-yl)-pyrimidin-5-yl]-amine], with 120 nM.
As for `CN1CCN(c2ccc(Nc3ncc4ccn(-c5cc(F)c(C#N)c(F)c5)c4n3)cn2)CC1` [Example 445, 2,6-Difluoro-4-{2-[6-(4-methyl-piperazin-1-yl)-pyridin-3-ylamino]-pyrrolo[2,3-d]pyrimidin-7-yl}-benzonitrile], the half-inhibitory concentration (IC50) was 43 nM.
Then `Fc1cc(-n2ccc3cnc(Nc4ccccn4)nc32)cc(F)c1CN1CCOCC1` [Example 209, [7-(3,5-Difluoro-4-morpholin-4-ylmethyl-phenyl)-7H-pyrrolo[2,3-d]pyrimidin-2-yl]-pyridin-2-yl-amine], with 125 nM; and `Cc1ccc(Nc2ncc3ccn(-c4ccc(C(=O)N5CCOCC5)c(F)c4)c3n2)cc1CN1CCNC2(CC2)C1` [Example 374, (4-{2-[3-(4,7-Diaza-spiro[2.5]oct-7-ylmethyl)-4-methyl-phenylamino]-pyrrolo[2,3-d]pyrimidin-7-yl}-2-fluoro-phenyl)-morpholin-4-yl-methanone], with 9.9 nM.
As for `CS(=O)(=O)c1ccc(-n2ccc3cnc(Nc4ccccc4)nc32)cc1` [Example 19, [7-(4-Methanesulfonyl-phenyl)-7H-pyrrolo[2,3-d]pyrimidin-2-yl]-phenyl-amine], the figure is 6.9 nM; as for `O=C1NC(c2ccc(Nc3ncc4ccn(-c5cc(F)c(CN6CCOCC6)c(F)c5)c4n3)cc2)CN2CCCCC12` (centres unmarked) [Example 389, 3-{4-[7-(3,5-Difluoro-4-morpholin-4-ylmethyl-phenyl)-7H-pyrrolo[2,3-d]pyrimidin-2-ylamino]-phenyl}-hexahydro-pyrido[1,2-a]pyrazin-1-one], at most 3 nM; as for `CC(=O)N1CCN(Cc2ccc(Nc3ncc4ccn(-c5cc(F)c(C(=O)N6CCOCC6)c(F)c5)c4n3)cc2)CC1` [Example 323, 1-[4-(4-{7-[3,5-Difluoro-4-(morpholine-4-carbonyl)-phenyl]-7H-pyrrolo[2,3-d]pyrimidin-2-ylamino}-benzyl)-piperazin-1-yl]-ethanone], 3.2 nM.
Then `Fc1cc(-n2ccc3cnc(Nc4cnn(C5CCNCC5)c4)nc32)cc(F)c1CN1CCOCC1` [Example 321, [7-(3,5-Difluoro-4-morpholin-4-ylmethyl-phenyl)-7H-pyrrolo[2,3-d]pyrimidin-2-yl]-(1-piperidin-4-yl-1H-pyrazol-4-yl)-amine], with below 3 nM; and `CCN1CCN(Cc2ccc(Nc3ncc4ccn(-c5ccc(S(C)(=O)=O)cc5)c4n3)nc2)CC1` [Example 317, [5-(4-Ethyl-piperazin-1-ylmethyl)-pyridin-2-yl]-[7-(4-methanesulfonyl-phenyl)-7H-pyrrolo[2,3-d]pyrimidin-2-yl]-amine], with 940 nM.
As for `CN1CCN(CCOc2cccc(Nc3ncc4ccn(-c5ccc(S(C)(=O)=O)cc5)c4n3)c2)CC1` [Example 32, [7-(4-Methanesulfonyl-phenyl)-7H-pyrrolo[2,3-d]pyrimidin-2-yl]-{3-[2-(4-methyl-piperazin-1-yl)-ethoxy]-phenyl}-amine], the IC50 was 5.4 nM.
As for `Cc1cc(Nc2ncc3ccn(-c4cc(F)c(CN5CCOCC5)c(F)c4)c3n2)ccc1CN1CCNCC1` [Example 460, [7-(3,5-Difluoro-4-morpholin-4-ylmethyl-phenyl)-7H-pyrrolo[2,3-d]pyrimidin-2-yl]-(3-methyl-4-piperazin-1-ylmethyl-phenyl)-amine], the figure is at most 3 nM; as for `N#Cc1ccc(Nc2ncc3ccn(-c4ccc(C(=O)N5CCOCC5)c(F)c4)c3n2)cn1` [Example 228, 5-{7-[3-Fluoro-4-(morpholine-4-carbonyl)-phenyl]-7H-pyrrolo[2,3-d]pyrimidin-2-ylamino}-pyridine-2-carbonitrile], 56.5 nM; as for `Cc1ccc(Nc2ncc3ccn(-c4cc(F)c(CN5CCOCC5)c(F)c4)c3n2)cc1COC1CNC1` [Example 420, [3-(Azetidin-3-yloxymethyl)-4-methyl-phenyl]-[7-(3,5-difluoro-4-morpholin-4-ylmethyl-phenyl)-7H-pyrrolo[2,3-d]pyrimidin-2-yl]-amine], at most 3 nM.
Then `CC(C)(C)OC(=O)N1CCN(Cc2ccc(Nc3ncc4ccn(-c5ccc(S(C)(=O)=O)cc5)c4n3)cc2)CC1` [Example 45, 4-{4-[7-(4-Methanesulfonyl-phenyl)-7H-pyrrolo[2,3-d]pyrimidin-2-ylamino]-benzyl}-piperazine-1-carboxylic acid tert-butyl ester], with 6.1 nM.

A word on the IC50: it is the concentration that inhibits the measured activity by half.
